# ChEMBL document CHEMBL3885881, “DrugMatrix”
# Species: Rattus norvegicus
# Assay: DrugMatrix - Regimen: Daily Repeat
# Assay type: toxicity, organism-based, Sprague-Dawley
# Design: regimen Daily Repeat, gender Male, age 6-8 weeks
# Details: in vivo, po, route oral GAVAGE, […]; for ABSOLUTE BASOPHIL / ABSOLUTE EOSINOPHIL / ABSOLUTE LYMPHOCYTE / ABSOLUTE MONOCYTE / ABSOLUTE SEGMENTED NEUTROPHIL / BASOPHIL / EOSINOPHIL / ERYTHROCYTE COUNT / HEMATOCRIT / HEMOGLOBIN / LEUKOCYTE COUNT / LYMPHOCYTE / MEAN CORPUSCULAR HEMOGLOBIN / MEAN CORPUSCULAR HEMOGLOBIN CONCENTRATION / MEAN CORPUSCULAR VOLUME / MONOCYTE / NEUTROPHIL / NUCLEATED RED BLOOD CELLS / PLATELET COUNT: tissue Blood; for ALANINE AMINOTRANSFERASE / ALBUMIN / ALKALINE PHOSPHATASE / ASPARTATE AMINOTRANSFERASE / BLOOD UREA NITROGEN / CARBON DIOXIDE / CHLORIDE / CHOLESTEROL / CREATINE PHOSPHOKINASE / CREATININE / GLUCOSE / LACTATE DEHYDROGENASE / LIPASE / PHOSPHORUS / POTASSIUM / SODIUM / TOTAL BILIRUBIN / TOTAL PROTEIN / URIC ACID: tissue Plasma
# [1] = 0 mg/kg, 72 h, dose level Control, time 3 day
# [2] = 0 mg/kg, 120 h, dose level Control, time 5 day
# [3] = 80 mg/kg, 72 h, dose level Low, time 3 day
structure (smiles),measurement,setting,value
CC(C)(Oc1ccc(C2CCCc3ccccc32)cc1)C(=O)O (centres undefined) [NAFENOPIN],ABSOLUTE BASOPHIL,[1],0 CELLS/uL
same,ABSOLUTE EOSINOPHIL,[1],47.67 CELLS/uL
same,ABSOLUTE LYMPHOCYTE,[1],11079 CELLS/uL
same,ABSOLUTE MONOCYTE,[1],251.67 CELLS/uL
same,ABSOLUTE SEGMENTED NEUTROPHIL,[1],1505 CELLS/uL
same,BASOPHIL,[1],0%
same,EOSINOPHIL,[1],0.33%
same,ERYTHROCYTE COUNT,[1],5.31 x10E6/uL
same,HEMATOCRIT,[1],32.87%
same,HEMOGLOBIN,[1],12.27 G/DL
same,LEUKOCYTE COUNT,[1],12.88 x10E3/uL
same,LYMPHOCYTE,[1],86.17%
same,MEAN CORPUSCULAR HEMOGLOBIN,[1],23.2 pg
same,MEAN CORPUSCULAR HEMOGLOBIN CONCENTRATION,[1],37.37 G/DL
same,MEAN CORPUSCULAR VOLUME,[1],62.03 fL
same,MONOCYTE,[1],2%
same,NEUTROPHIL,[1],11.5%
same,NUCLEATED RED BLOOD CELLS,[1],0 /100WBC
same,PLATELET COUNT,[1],956.5 x10E3/uL
same,ALANINE AMINOTRANSFERASE,[1],69.67 u/L
same,ALBUMIN,[1],4.15 G/DL
same,ALKALINE PHOSPHATASE,[1],415.33 u/L
same,ASPARTATE AMINOTRANSFERASE,[1],93.17 u/L
same,BLOOD UREA NITROGEN,[1],17.33 mg/dL
same,CARBON DIOXIDE,[1],27.33 mmol/L
same,CHLORIDE,[1],100.17 MEQ/L
same,CHOLESTEROL,[1],76.5 mg/dL
same,CREATINE PHOSPHOKINASE,[1],587 u/L
same,CREATININE,[1],0.25 mg/dL
same,GLUCOSE,[1],155.5 mg/dL
same,LACTATE DEHYDROGENASE,[1],343.5 u/L
same,LIPASE,[1],11.17 u/L
same,PHOSPHORUS,[1],11.77 mg/dL
same,POTASSIUM,[1],6.51 MEQ/L
same,SODIUM,[1],140.93 MEQ/L
same,TOTAL BILIRUBIN,[1],0.2 mg/dL
same,TOTAL PROTEIN,[1],5.87 G/DL
same,URIC ACID,[1],1.43 mg/dL
same,ABSOLUTE BASOPHIL,[2],0 CELLS/uL
same,ABSOLUTE EOSINOPHIL,[2],22.67 CELLS/uL
same,ABSOLUTE LYMPHOCYTE,[2],12729.33 CELLS/uL
same,ABSOLUTE MONOCYTE,[2],424.67 CELLS/uL
same,ABSOLUTE SEGMENTED NEUTROPHIL,[2],2006.67 CELLS/uL
same,BASOPHIL,[2],0%
same,EOSINOPHIL,[2],0.17%
same,ERYTHROCYTE COUNT,[2],5.48 x10E6/uL
same,HEMATOCRIT,[2],33.32%
same,HEMOGLOBIN,[2],12.73 G/DL
same,LEUKOCYTE COUNT,[2],15.18 x10E3/uL
same,LYMPHOCYTE,[2],83.83%
same,MEAN CORPUSCULAR HEMOGLOBIN,[2],23.25 pg
same,MEAN CORPUSCULAR HEMOGLOBIN CONCENTRATION,[2],38.22 G/DL
same,MEAN CORPUSCULAR VOLUME,[2],60.85 fL
same,MONOCYTE,[2],2.83%
same,NEUTROPHIL,[2],13.17%
same,NUCLEATED RED BLOOD CELLS,[2],0 /100WBC
same,PLATELET COUNT,[2],909.83 x10E3/uL
same,ALANINE AMINOTRANSFERASE,[2],57.67 u/L
same,ALBUMIN,[2],4.03 G/DL
same,ALKALINE PHOSPHATASE,[2],472.33 u/L
same,ASPARTATE AMINOTRANSFERASE,[2],80.83 u/L
same,BLOOD UREA NITROGEN,[2],14.67 mg/dL
same,CARBON DIOXIDE,[2],31.83 mmol/L
same,CHLORIDE,[2],96 MEQ/L
same,CHOLESTEROL,[2],68 mg/dL
same,CREATINE PHOSPHOKINASE,[2],281.67 u/L
same,CREATININE,[2],0.19 mg/dL
same,GLUCOSE,[2],147.33 mg/dL
same,LACTATE DEHYDROGENASE,[2],210.83 u/L
same,LIPASE,[2],11 u/L
same,PHOSPHORUS,[2],11.63 mg/dL
same,POTASSIUM,[2],6.06 MEQ/L
same,SODIUM,[2],139.37 MEQ/L
same,TOTAL BILIRUBIN,[2],0.17 mg/dL
same,TOTAL PROTEIN,[2],5.82 G/DL
same,URIC ACID,[2],1.12 mg/dL
same,ABSOLUTE BASOPHIL,[3],0 CELLS/uL
same,ABSOLUTE EOSINOPHIL,[3],91 CELLS/uL
same,ABSOLUTE LYMPHOCYTE,[3],10987.33 CELLS/uL
same,ABSOLUTE MONOCYTE,[3],229 CELLS/uL
same,ABSOLUTE SEGMENTED NEUTROPHIL,[3],2392.67 CELLS/uL
same,BASOPHIL,[3],0%
same,EOSINOPHIL,[3],0.67%
same,ERYTHROCYTE COUNT,[3],5.31 x10E6/uL
same,HEMATOCRIT,[3],33.1%
same,HEMOGLOBIN,[3],12.4 G/DL
same,LEUKOCYTE COUNT,[3],13.7 x10E3/uL
same,LYMPHOCYTE,[3],80.33%
same,MEAN CORPUSCULAR HEMOGLOBIN,[3],23.37 pg
same,MEAN CORPUSCULAR HEMOGLOBIN CONCENTRATION,[3],37.47 G/DL
same,MEAN CORPUSCULAR VOLUME,[3],62.37 fL
same,MONOCYTE,[3],1.67%
same,NEUTROPHIL,[3],17.33%
same,NUCLEATED RED BLOOD CELLS,[3],0 /100WBC
same,PLATELET COUNT,[3],1097 x10E3/uL
same,ALANINE AMINOTRANSFERASE,[3],88 u/L
same,ALBUMIN,[3],4.7 G/DL
same,ALKALINE PHOSPHATASE,[3],593 u/L
same,ASPARTATE AMINOTRANSFERASE,[3],109.67 u/L
same,BLOOD UREA NITROGEN,[3],15.33 mg/dL
same,CARBON DIOXIDE,[3],25.67 mmol/L
same,CHLORIDE,[3],102.33 MEQ/L
same,CHOLESTEROL,[3],44.33 mg/dL
same,CREATINE PHOSPHOKINASE,[3],372 u/L
same,CREATININE,[3],0.23 mg/dL
same,GLUCOSE,[3],141 mg/dL
same,LACTATE DEHYDROGENASE,[3],370.67 u/L
same,LIPASE,[3],10.67 u/L
same,PHOSPHORUS,[3],12.4 mg/dL
same,POTASSIUM,[3],6.4 MEQ/L
same,SODIUM,[3],144.37 MEQ/L
same,TOTAL BILIRUBIN,[3],0.1 mg/dL
same,TOTAL PROTEIN,[3],5.57 G/DL
same,URIC ACID,[3],1.3 mg/dL
